Where two headings read alike, the source gives them in different places. Residues, ends and D or L forms follow the SMILES beside them.

This assay has as its target h-mT1R2-481/T1R3mosaicA (UniProt Q8TE23+Q925D8, A12W/A31M/A537S/A558R/A564V/A568V/A570T/A588V/A645S/A649T/A658V/A698V/A702T/A782V/A793V/A807V/C582S/C678S/E16H/E530V/E534N/E542M/E548N/E725V/F14L/F29L/F525Y/F541I/F612A/F622V/F665L/F695L/G696N/G701T/H484Y/H528R/H728R/I36V/I481V/I486P/I490V/I510L/I518V/I595M/I60P/I617V/I643V/I645L/I692L/I695G/I706V/I740A/I803L/K30R/K504M/K555R/K565R/K626T/K714N/K818R/K827G/L17P/L521P/L560F/L571I/L578I/L610P/L631F/L636F/L639V/L684P/L688V/L702I/L734M/L735F/L800F/L823M/L825Q/M19T/M492I/M616G/M644L/M682V/M690V/M744T/M748V/N52R/N540G/N541S/N547G/N58S/N63T/N675D/N721H/P545F/P561R/P564S/P61V/P638T/P824S/Q32K/Q536L/Q53S/Q546K/Q550E/Q555R/Q56R/Q611L/Q676H/Q757R/Q795R/Q831P/R498S/R632Q/R667S/S22P/S45E/S501P/S547N/S550A/S576L/S595F/S610P/S628F/S635P/S637R/S663R/S670G/S679G/S681F/S703N/S717H/S727G/S784D/S804G/T46A/T50G/T529S/T542A/T549I/T609V/T629S/T642S/T663I/T694M/T705I/T706G/T716I/T813A/V508I/V512P/V557A/V573A/V584A/V585L/V613L/V617M/V673M/V687A/V691A/V694A/V718L/V718M/V723A/V729T/V738A/V741L/V774I/V791M/V805L/V812A/V821L/W599R/W676R/W824R/Y533F/Y615F/Y671F/Y680C/Y769S/Y783H/Y794L). To be noted: HEK293E cells.

Where [1] appears, read: Table 3, genes h-mT481/T3mA (h-mT1R2-481, T1R3mA).
Where [2] appears, read: Table 4, genes h-mT481/T3mA (h-mT1R2-481, T1R3mA).
Where [3] appears, read: Table 5, genes h-mT481/T3mA (h-mT1R2-481, T1R3mA).
The mark [4] stands for this setting: Table 6, genes h-mT481/T1Rm3A (h-mT1R2-481, T1R3mA).

Sequence of h-mT1R2-481/T1R3mosaicA (Q8TE23 with tags, fused parts or gaps with the stated changes limits assumed): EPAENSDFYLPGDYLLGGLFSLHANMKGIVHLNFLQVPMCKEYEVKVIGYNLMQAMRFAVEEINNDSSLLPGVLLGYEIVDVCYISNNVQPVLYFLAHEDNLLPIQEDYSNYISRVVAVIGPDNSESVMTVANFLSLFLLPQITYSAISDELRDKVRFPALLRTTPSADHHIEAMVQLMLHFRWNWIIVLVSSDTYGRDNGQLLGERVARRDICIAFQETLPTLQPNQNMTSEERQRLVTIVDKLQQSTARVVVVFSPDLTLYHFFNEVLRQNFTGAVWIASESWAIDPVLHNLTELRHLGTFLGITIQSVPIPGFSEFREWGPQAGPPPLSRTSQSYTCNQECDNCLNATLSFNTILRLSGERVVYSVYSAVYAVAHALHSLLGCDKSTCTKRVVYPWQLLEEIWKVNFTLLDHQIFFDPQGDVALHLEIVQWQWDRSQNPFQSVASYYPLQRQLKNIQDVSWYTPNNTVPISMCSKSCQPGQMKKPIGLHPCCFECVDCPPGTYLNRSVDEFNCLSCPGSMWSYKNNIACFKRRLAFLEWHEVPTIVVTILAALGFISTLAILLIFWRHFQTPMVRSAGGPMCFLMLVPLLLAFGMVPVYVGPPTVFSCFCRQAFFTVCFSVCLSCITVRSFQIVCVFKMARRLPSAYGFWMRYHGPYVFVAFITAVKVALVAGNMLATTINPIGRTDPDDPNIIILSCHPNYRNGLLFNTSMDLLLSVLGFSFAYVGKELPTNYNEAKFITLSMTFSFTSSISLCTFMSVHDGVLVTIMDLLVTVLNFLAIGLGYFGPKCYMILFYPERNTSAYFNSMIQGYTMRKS
Sequence of h-mT1R2-481/T1R3mosaicA (Q925D8 with tags, fused parts or gaps with the stated changes limits assumed): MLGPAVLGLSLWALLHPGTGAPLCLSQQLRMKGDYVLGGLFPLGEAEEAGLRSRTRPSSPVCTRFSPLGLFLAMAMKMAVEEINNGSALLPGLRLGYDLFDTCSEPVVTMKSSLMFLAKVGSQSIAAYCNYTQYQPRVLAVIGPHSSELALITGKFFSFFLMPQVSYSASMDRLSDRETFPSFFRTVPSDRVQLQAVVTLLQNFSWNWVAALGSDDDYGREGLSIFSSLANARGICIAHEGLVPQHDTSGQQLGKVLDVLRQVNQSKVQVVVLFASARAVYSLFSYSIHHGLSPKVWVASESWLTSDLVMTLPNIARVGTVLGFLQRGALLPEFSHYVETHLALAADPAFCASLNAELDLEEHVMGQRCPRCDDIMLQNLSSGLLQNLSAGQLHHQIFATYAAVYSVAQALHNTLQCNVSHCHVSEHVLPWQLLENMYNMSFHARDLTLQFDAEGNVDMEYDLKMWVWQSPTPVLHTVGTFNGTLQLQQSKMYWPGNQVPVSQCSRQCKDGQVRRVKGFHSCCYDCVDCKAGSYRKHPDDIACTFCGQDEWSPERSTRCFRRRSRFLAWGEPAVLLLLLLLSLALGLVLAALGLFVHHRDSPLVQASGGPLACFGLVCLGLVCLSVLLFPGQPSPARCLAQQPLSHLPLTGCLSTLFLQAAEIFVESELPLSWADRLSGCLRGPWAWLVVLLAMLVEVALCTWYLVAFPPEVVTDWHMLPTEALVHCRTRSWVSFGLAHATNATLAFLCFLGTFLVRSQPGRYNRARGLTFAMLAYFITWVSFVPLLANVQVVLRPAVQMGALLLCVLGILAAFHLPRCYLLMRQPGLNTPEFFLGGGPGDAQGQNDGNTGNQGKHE

On to `CC1=CC(=O)NS(=O)(=O)O1` [Acesulfame K, acesulfame potassium], for which the S/N came out at 4.7 under setting [1], 5.4 under setting [2], 4.7 under setting [3] and 6.0 under setting [4].

Consider `COC(=O)[C@H](Cc1ccccc1)NC(=O)[C@H](CC(=O)O)NCCCc1ccc(OC)c(O)c1` [Advantame, advantame], for which the S/N by setting is: under setting [1], 10.6; under setting [2], 11.3; under setting [3], 10.6; under setting [4], 10.5.

With `COC(=O)[C@H](Cc1ccccc1)NC(=O)[C@@H](N)CC(=O)O` [Aspartame, aspartame] (HELM PEPTIDE1{D.F.[CO[*:1]]}$$$$V2.0), the S/N is, setting by setting: under setting [1], 7.0; under setting [2], 9.4; under setting [3], 7.0; under setting [4], 7.3.

Turning to `COc1ccc(CCC(=O)c2c(O)cc(O[C@@H]3O[C@H](CO)[C@@H](O)[C@H](O)[C@H]3O[C@@H]3O[C@@H](C)[C@H](O)[C@@H](O)[C@H]3O)cc2O)cc1O` [NHDC, neohesperidin dihydrochalcone], the S/N is given as 4.3 under setting [3] and 5.9 under setting [4].

Consider `COC(=O)[C@H](Cc1ccccc1)NC(=O)[C@H](CC(=O)O)NCCC(C)(C)C` [Neotame, neotame], for which the S/N under setting [1] came out at 8.8, the S/N under setting [2] is recorded as 9.4, the S/N under setting [3] worked out at 8.8 and the S/N under setting [4] turned out to be 8.9.

Consider `C[C@H](NC(=Nc1ccc(C#N)cc1)NCC(=O)O)c1ccccc1` [SC-45647, [3-[(S)-1-phenylethyl]-2-(4-cyanophenyl)guanidino]acetic acid], for which the S/N worked out at 8.4 under setting [1], 7.9 under setting [2], 8.4 under setting [3] and 8.7 under setting [4].

Consider `O=C1NS(=O)(=O)c2ccccc21.[Na]` [Saccharin Na, sodium saccharin], for which the S/N reads like this: under setting [1], 5.6; under setting [2], 5.6; under setting [3], 5.6; under setting [4], 6.9.

For `OC[C@H]1O[C@H](O[C@]2(CCl)O[C@H](CCl)[C@@H](O)[C@@H]2O)[C@H](O)[C@@H](O)[C@H]1Cl` [Sucralose, sucralose], the S/N runs as follows: under setting [1], 7.8; under setting [2], 9.0; under setting [3], 7.8; under setting [4], 7.0.

Regarding `OC[C@H]1O[C@@](CO)(O[C@H]2O[C@H](CO)[C@@H](O)[C@H](O)[C@H]2O)[C@@H](O)[C@@H]1O` [Sucrose, sucrose], the S/N under setting [1] is on record as 3.4, the S/N under setting [2] turned out to be 3.9, the S/N under setting [3] is listed as 3.4 and the S/N under setting [4] worked out at 3.8.

The values are drawn from US9341616B2, “Sweet taste receptor chimeric proteins and use thereof” (AJINOMOTO CO., INC., priority 2014, dated 2016).
